Test results reported in patent US20030113268A1, “Degradation-resistant glucocorticosteroid formulations” (priority 2000, published 2003).

Test: Comparison of radical quenchers: impurities on storage at 40° C. and 75% relative humidity, uncoated canisters
Format: physicochemical
Conditions: for effectiveness in reducing degradation of the budesonide formulations: Tables X-XII, 40° C./75% relative humidity
Description: To compare the effectiveness of various radical quenchers in preventing degradation of budesonide formulations, formulations containing budesonide, HFA-134a, ethanol, and a radical quencher were made in uncoated canisters using the steps described in Example I. The compositions of the formulations are shown in Table IX. Formulations were made containing each radical quencher with and without 3% aqueous hydrogen peroxide. The hydrogen peroxide was included in some formulations to challenge the radical quencher.
The initial impurities in each formulation were measured, and the formulations were stored at 40° C. and 75% relative humidity. Impurities were measured again after 4 weeks and after 3 months. For selected formulations, impurities were also measured after 11 months.

Compound | effectiveness in reducing degradation of the budesonide formulations | physical stability of formulations including the radical quencher (clumping) (budesonide/ethanol/HFA-134a formulations)
CCCCCCCCCCCCCCCC(=O)OC[C@H](O)[C@H]1OC(=O)C(O)=C1O [ascorbyl palmitate] | very effective | tended to form clumps of solid matter
COc1ccc(O)c(C(C)(C)C)c1 [butylated hydroxyanisole (BHA), butylated hydroxyanisole] | very effective | –
Vitamin E | effectively reduced degradation | –
